# Reference: ChEMBL document CHEMBL1130841, “Evaluation of phosphorus-containing inhibitors of gamma-glutamyl hydrolase” (Bioorg Med Chem Lett, 1998)
# pKi: −log10 of the molar value.
# How the values were obtained:
# [1] = biological target: T1, Gamma-glutamyl hydrolase (Homo sapiens, UniProt Q92820); experiment: Compound was tested for inhibitory potency against gamma-Glutamyl Hydrolase.
# T1 sequence (Q92820 whole entry): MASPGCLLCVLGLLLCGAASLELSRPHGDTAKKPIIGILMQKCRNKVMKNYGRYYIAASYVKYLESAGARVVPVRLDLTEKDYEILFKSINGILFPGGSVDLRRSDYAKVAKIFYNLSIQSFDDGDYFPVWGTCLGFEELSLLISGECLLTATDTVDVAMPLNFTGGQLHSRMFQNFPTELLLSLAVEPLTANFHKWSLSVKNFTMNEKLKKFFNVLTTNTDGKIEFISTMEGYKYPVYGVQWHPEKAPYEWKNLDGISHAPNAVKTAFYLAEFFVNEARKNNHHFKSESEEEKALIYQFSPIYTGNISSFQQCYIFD
# [2] = Dissociation constant was evaluated.; format: physicochemical
# [3] = Phosphorylation rate constant was evaluated.; format: ADME
SMILES,pKi [1],Ki [1] [M⁻¹],Kd [2] [M⁻¹],kp [3] [min⁻¹]
O=C(O)CC[C@H](NP(=O)(O)c1ccccc1)C(=O)O,9.02,–,–,–
COP(=O)(N[C@@H](CCC(=O)O)C(=O)O)OC,–,10.9,0.223,2.42
COP(=O)(N[C@@H](CCC(=O)O)C(=O)O)c1ccccc1 (some centres not stated),–,0.264,27.4,7.24
